Laboratory results as given in patent publication US20080008773A1, “Food beverage or feed for the promotion of osteogenesis comprising umbelliferae, liliaceae or compositae plant species” (priority 2002, published 2008).

What was measured:
MC3T3-E1 cells = assay: Induction of differentiation of MC3T3-E1 cells into osteoblasts (alkaline phosphatase as index); type: cell-based, Mouse
Protocol: (§1) (1) Mouse interstitial cell strain ST-2 was suspended in DMEM medium (manufactured by Bio Whittaker) containing 10% fetal bovine serum (manufactured by Bio Whittaker) so as to have a concentration of 3×10^4 cells/ml. The suspension was put to a 96-well plate in an amount of 0.1 ml per well, and the cells were cultured sterilely. After the cells were cultured for 2 days, the medium was exchanged with a fresh medium. The compound a derived from root portions of Angelica keiskei koidz. obtained in Example 1 was added thereto as a sample, and the cells were cultured for 3 days. Subsequently, differentiation of ST-2 cells into osteoblasts was measured using alkaline phosphatase as an index. The cells were washed once with PBS, 100 μl of a reaction substrate solution (100 mM diethanolamine buffer, pH 10.0, 2 mM magnesium chloride, 1 mM p-nitrophenyl phosphate) was added thereto, and the reaction was carried out at 37° C. for 30 minutes. Next, the reaction was terminated with adding 100 μl of 0.2 N sodium hydroxide, and the amount of p-nitrophenol which was released was determined by determining absorbance at 405 nm. The activity for induction of differentiation into osteoblasts was shown by setting a group without addition of the sample as a control, and defining alkaline phosphatase activity of the control as 100%. The experiments were carried out twice, and the average was taken.
Mouse pre-osteoblast strain MC3T3-E1 was suspended in DMEM medium containing 10% fetal bovine serum so as to have a concentration of 3×10^4 cells/ml. The suspension was put to a 96-well plate in an amount of 0.1 ml per well, and the cells were cultured sterilely. After the cells were cultured for 2 days, the medium was exchanged with a fresh medium. The compound a derived from root portions of Angelica keiskei koidz. obtained in Example 1 was added thereto as a sample, and the cells were cultured for 5 days. Subsequently, the differentiation into osteoblasts was determined using alkaline phosphatase as an index in the same manner as in Example 2.

ST-2 cells = assay: Induction of differentiation of ST-2 cells into osteoblasts (alkaline phosphatase as index); type: cell-based, Mouse
Protocol: as §1

CC12CCC(O)C(C)(C)C1Cc1c(O)ccc(C(=O)/C=C/c3ccc(O)cc3)c1O2 (single isomer, unassigned) [Compound a, (E)-1-(5,6,7,8,8a,10a-hexahydro-1,7-dihydroxy-8,8,10a-trimethyl-9H-xanthen-4-yl)-3-(4-hydroxyphenyl)-2-propen-1-one]
Induction of differentiation into osteoblasts (in words) (MC3T3-E1 cells): induces the differentiation into osteoblasts in a concentration-dependent manner
activity at 1.25 µM (MC3T3-E1 cells; Mus musculus, 120 h, 1.25 μM, cultured 5 days, control = 100%): 171%
activity at 2.5 µM (MC3T3-E1 cells; Mus musculus, 120 h, 2.5 μM, cultured 5 days, control = 100%): 292%
Induction of differentiation into osteoblasts (in words) (ST-2 cells): induces differentiation into osteoblasts in a concentration-dependent manner
activity at 0.313 µM (ST-2 cells; Mus musculus, 72 h, 0.313 μM, cultured 3 days, control without sample = 100%): 219%
activity at 0.625 µM (ST-2 cells; Mus musculus, 72 h, 0.625 μM, cultured 3 days, control without sample = 100%): 260%
activity at 1.25 µM (ST-2 cells; Mus musculus, 72 h, 1.25 μM, cultured 3 days, control without sample = 100%): 358%
